According to patent publication US20100130450A1, “Methods of Treating Fungal Infections” (NORTHEASTERN UNIVERSITY, priority 2007, published 2010):
Entries after “also recorded” stand apart in the source; their conditions may differ.

Key:
[1] = test system: Candida albicans strain CAF4-2 biofilms; type: cell-based; conditions: for inhibition of metabolic activity by the compound alone (XTT): any concentration tested
Description: Specifically, a screen was developed using C. albicans cells treated with miconazole at subinhibitory concentrations, to which candidate potentiator compounds were added. […] In order to make the screen compatible with high-throughput approaches, biofilms were grown in microtiter plates and the reduction of a vital dye XTT, commonly used to monitor yeast viability, was used as the quantitative readout.
Microtiter plate wells were seeded with wild type Candida albicans strain CAF4-2. Biofilms were grown for 48 hrs at 37° C., washed with PBS pH 7.4, and resuspended in a final volume of 100 μl RPMI containing 10 μg/ml miconazole. Individual compounds from ChemBridge DiverSet E (ChemBridge Corp., San Diego, Calif.) were then added at 10 μg/ml to the wells. Plates were incubated for 24 hrs and XTT (Sigma-X4751) was added at 1 mg/ml to each well. After 4 hrs of incubation at 37° C., reduction of XTT was monitored by recording the optical density at 690 nm (subtracted from OD450) with a microtiter plate reader. Hits were identified when XTT reduction was inhibited by more than 30% of the control values.
A checkerboard assay was then performed to examine possible synergy between miconazole and the hits. 100 μg/ml miconazole (2× dilution in each subsequent well, y-axis) and 100 μg/ml compound AC9 (2× dilution, x-axis) were added to mature 48 hr wild type C. albicans biofilms and incubated for an additional 24 hrs in the presence of the drugs. XTT was added to each well at 1 mg/ml and biofilms were incubated at 37° C. for an additional 4 hrs.
As described in Example 2, initially 5,000 compounds of the 16,000 from the ChemBridge library were screened for potentiators of miconazole action against C. albicans biofilms. A larger screen is conducted on the remaining 11,000 compounds from the ChemBridge library. Screening is performed as described in Example 2 using 96-well plates. Candida biofilms are formed by growing cells for 48 hrs at 37° C. in a shaking incubator in 96-well microtiter plates according to standard protocol (Ramage et al., Antimicrob. Agents Chemother. 45:2475-2479 (2001)). […] 10 μg/ml miconazole is added to each well and 10 μg/ml of unique compounds is added to rows 2-11 and the plates are incubated for 24 hrs at 37° C. XTT is then added to each well at 1 mg/ml and the plates are incubated for an additional 4 hrs at 37° C. The amount of XTT converted to dye is quantified with a plate reader by subtracting the optical density at 690 nm from the optical density at 450 nm. […] Positive hits are scored when the optical density of the experimental well is <0.7.

[2] = test system: Mature biofilms of wild type C. albicans; assay: Potentiation of biofilm killing by miconazole, CFU analysis; type: cell-based, Candida albicans; conditions: for biofilm killing by the compound alone (CFU): alone: 100 μg/ml miconazole or 200 μg/ml hit compound
Description: Next, the same checkerboard assay was repeated to test the ability of the hit compounds to potentiate biofilm killing by miconazole. Mature biofilms of wild type C. albicans were challenged with 100 μg/ml miconazole, 200 μg/ml of the hit compound, or a combination of the two for 24 hrs. Biofilms were then washed, scraped, resuspended in PBS, vortexed for 30 seconds and plated for CFU analysis.

[3] = test system: Biofilms of C. albicans 3153A cells; assay: C. albicans biofilm killing by antifungals, CFU determination; type: cell-based, Candida albicans; conditions: for shape of biofilm killing curve: dose-dependent
Description: Biofilms of C. albicans 3153A cells were cultured in wells of microtiter plates in RPMI medium for 48 hrs (Ramage et al., Antimicrob. Agents Chemother. 45:2475-2479 (2001)), washed twice in PBS pH 7.4 to remove nonadherent cells, and resuspended in 100 μl RPMI growth medium containing antifungals. After 24 hrs of antifungal challenge, the biofilms and cultures were washed twice, resuspended in 100 μl PBS, scraped, transferred into eppendorf tubes, vortexed and plated for colony forming unit (CFU) determination on YPD medium. […] In parallel, exponentially growing and stationary planktonic cultures were grown for 48 hrs in RPMI medium, and then antifungals were added for 24 hrs. The experiment was performed in triplicate and error bars indicate standard deviation (see FIG. 1).
Biofilms were grown in microtiter plates and were treated with amphotericin B or chlorhexidine (100 μg/ml) for 24 hrs, after which they were washed and vortexed, as discussed above. The cells were then reinoculated into microtiter plates to form new biofilms. The new biofilms, derived from persisters that survived drug treatment, were again treated with the antifungal agents (as discussed above), and the procedure was repeated a total of 3 times. Biofilms were sampled for CFU determination before and after antifungal treatment. The experiment was performed in triplicate.
Tests were also performed to determine if yeast persisters were multidrug tolerant. Mature, 48 hr biofilms of C. albicans were challenged for 24 hrs with 100 μg/ml amphotericin B, 100 μg/ml chlorhexidine, or a combination of these two antifungal agents, using the same procedures discussed above. Biofilms were washed and sampled for CFU determination before and after antifungal treatment, as discussed above.

[4] = test system: C. albicans 3153A planktonic cultures; assay: Killing of exponentially growing and stationary planktonic cultures, CFU; type: cell-based, Candida albicans; conditions: antifungal added for 24 hrs
Description: (§1) Biofilms of C. albicans 3153A cells were cultured in wells of microtiter plates in RPMI medium for 48 hrs (Ramage et al., Antimicrob. Agents Chemother. 45:2475-2479 (2001)), washed twice in PBS pH 7.4 to remove nonadherent cells, and resuspended in 100 μl RPMI growth medium containing antifungals. After 24 hrs of antifungal challenge, the biofilms and cultures were washed twice, resuspended in 100 μl PBS, scraped, transferred into eppendorf tubes, vortexed and plated for colony forming unit (CFU) determination on YPD medium. […] This could lead to an underestimation of surviving cells by a factor of ≦10. In parallel, exponentially growing and stationary planktonic cultures were grown for 48 hrs in RPMI medium, and then antifungals were added for 24 hrs. The experiment was performed in triplicate and error bars indicate standard deviation (see FIG. 1).

[5] = test system: biofilm-deficient strains of C. albicans; assay: Persister formation by biofilm-deficient strains (survival to high levels of amphotericin B); type: cell-based, Candida albicans
Description: as §1
Given that persisters appeared only in the biofilm, their formation was dependent on the same genes/pathways that determine biofilm development. A large panel of biofilm-defective mutants was therefore tested for their ability to produce persisters by measuring survival to high levels of amphotericin B. These mutants were able to adhere to the surface of a microtiter plate, making it possible to assay in the biofilm survival protocol described above. Unexpectedly, all strains appeared to produce essentially normal levels of persisters (Table 1).

C. albicans = assay: MIC; type: cell-based, Candida albicans
[6] = mouse; cited from earlier work

SMILES: Oc1c(/N=N/c2ccccn2)ccc2ccccc12 [AC9]
- calculated OD value (OD450 minus OD690) of the positive control ([1]; AC9 at 10 μg/ml plus 10 μg/ml miconazole, negative control >1): 0.4
- inhibition of metabolic activity by the compound alone (XTT) [1]: Neither miconazole nor AC9 alone inhibited metabolic activity
- lowest concentration with inhibition of metabolic activity (XTT checkerboard) ([1]; in the presence of 12.5 μg/ml miconazole, 48 hr biofilm, 24 hrs): 3.1 µg/mL
- synergy with miconazole (XTT checkerboard) ([1]; up to 100 μg/ml each, 2x dilutions): clear synergy
- rank among the hits in the XTT reduction inhibition checkerboard assay ([1]; with miconazole): most active compound among the hits
- biofilm killing in the presence of miconazole (CFU) ([2]; 100 μg/ml miconazole + 200 μg/ml compound, 24 hrs): Complete eradication; also recorded: completely eradicated
- biofilm killing by the compound alone (CFU) ([2]; 24 hrs): Neither miconazole nor AC9 alone had any killing activity
- minimal concentration at which the compound potentiates complete killing of C. albicans by miconazole ([2]; with miconazole): 100 µg/mL

SMILES: CC[C@H](C)C[C@H](C)CCCCCCCCC(=O)N[C@H]1C[C@@H](O)[C@@H](NCCN)NC(=O)[C@@H]2[C@@H](O)CCN2C(=O)[C@H]([C@H](O)CCN)NC(=O)[C@H]([C@H](O)[C@@H](O)c2ccc(O)cc2)NC(=O)[C@@H]2C[C@@H](O)CN2C(=O)[C@H]([C@@H](C)O)NC1=O [Caspofungin, caspofungin]
- killing of biofilms ([3]; 48 hr biofilm, 24 hrs antifungal challenge, CFU): ≤ 10 fold

SMILES: C[C@@H]1[C@H](O)[C@@H](C)/C=C/C=C/C=C/C=C/C=C/C=C/C=C/[C@H](O[C@@H]2O[C@H](C)[C@@H](O)[C@H](N)[C@@H]2O)C[C@@H]2O[C@](O)(C[C@@H](O)C[C@@H](O)[C@H](O)CC[C@@H](O)C[C@@H](O)CC(=O)O[C@H]1C)C[C@H](O)[C@H]2C(=O)O [amphotericin B]
- shape of biofilm killing curve ([3]; 24 hrs challenge, CFU): biphasic killing
- biofilm cells invulnerable to the drug (persisters) ([3]; higher concentrations, 24 hrs challenge): More than 1%
- killing of exponentially growing and stationary planktonic cells [4]: effectively killed exponentially growing and stationary cells
- Persisters ([5]; strain 3153A): +++^1 (1-2% survival)
- Persisters ([5]; strain CAI4): +^3 (0.05-0.1% survival)
- Persisters ([5]; strain CJN698): ++ (0.1-1% survival)
- Persisters ([5]; strain CJN702): ++ (0.1-1% survival)
- Persisters ([5]; strain CKY136): +++ (1-2% survival)
- Persisters ([5]; strain CKY138): ++ (0.1-1% survival)
- Persisters ([5]; strain CKY357): ++^2 (0.1-1% survival)
- Persisters ([5]; strain DAY185): ++ (0.1-1% survival)
- Persisters ([5]; strain DAY286): ++ (0.1-1% survival)
- Persisters ([5]; strain GKO9): ++ (0.1-1% survival)
- Persisters ([5]; strain GKO443): ++ (0.1-1% survival)
- Persisters ([5]; strain GKO798): ++ (0.1-1% survival)
- Persisters ([5]; strain GKO814): ++ (0.1-1% survival)
- Persisters ([5]; strain MC191): +++ (1-2% survival)
- Persisters ([5]; strain MC195): + (0.05-0.1% survival)
- Persisters ([5]; strain MC245): ++ (0.1-1% survival)

SMILES: [H]/N=C(\N/C(=N/[H])NCCCCCCNC(=N)NC(=N)Nc1ccc(Cl)cc1)Nc1ccc(Cl)cc1 [chlorhexidine]
- concentration at which killing of persisters was observed ([3]; 24 hrs challenge): above 100 μg/ml
- concentration at which the biofilm was completely sterilized ([3]; 24 hrs challenge): 1000 µg/mL
- shape of biofilm killing curve ([3]; 24 hrs challenge, CFU): biphasic killing
- killing of exponentially growing and stationary planktonic cells [4]: eliminated

SMILES: Clc1ccc(COC(Cn2ccnc2)c2ccc(Cl)cc2Cl)c(Cl)c1 (stereo not shown) [miconazole]
- MIC of logarithmically growing cells (C. albicans): 0.03 μg/ml
- inhibition of metabolic activity by the compound alone (XTT) [1]: Neither miconazole nor AC9 alone inhibited metabolic activity
- XTT reduction by biofilm ([1]; miconazole alone at 10 μg/ml, 24 hrs): indistinguishable from biofilms with no miconazole
- biofilm killing by the compound alone (CFU) ([2]; 24 hrs): Neither miconazole nor AC9 alone had any killing activity
- LD50 [6]: 519 mg/kg
